Format in all cases: cell-based
The subject of experiment [1] is HCMV (human cytomegalovirus, strain AD 169). The experiment can be described thus: HCMV antiviral assay, plaque reduction in WI-38 cell culture monolayers. Here is the method: (§1) Assays were performed in cell culture systems to determine the concentrations of compounds that are effective in preventing several kinds of viral infections.
(§2) HSV-1 (herpes simplex virus type 1, strain Schooler), HSV-2 (herpes simplex virus type 2, strain 186), VZV (varicella zoster virus, strain ELLEN), HCMV (human cytomegalovirus, strain AD 169), MuLV (murine leukemia virus, strain CAS), HIV (human immunodeficiency virus, strain HTLV-IIIB).
(§3) HSV-1, HSV-2, HCMV, and VZV antiviral assays: Virus was adsorbed to WI-38 cell culture monolayers in 6 well culture plates (Costar, Cambridge, MA) for 1 hour prior to addition of maintenance medium containing duplicate dilutions of the test compound. Inhibition of plaque development was evaluated on fixed and stained monolayers after 4 days incubation at 37° C. for HSV-1 and HSV-2 and after 6-7 days incubation at 37° C. for HCMV and VZV. ID50 values were determined from the drug concentration which conferred at least a 50% plaque reduction compared to virus controls.

In experiment [2] the test system is VZV (varicella zoster virus, strain ELLEN). The experiment can be described thus: VZV antiviral assay, plaque reduction in WI-38 cell culture monolayers. As for the experimental part: as §1, §2, §3
In experiment [3] the test system is HSV-1 (herpes simplex virus type 1, strain Schooler). The experiment can be described thus: HSV-1 antiviral assay, plaque reduction in WI-38 cell culture monolayers. To be noted: Human alphaherpesvirus 1, 96 h; at least 50% plaque reduction; WI-38 cells; 4 days incubation at 37° C; read-out: ID50 HSV-1. Here is the method:
as §1, §2, §3

Experiment [4] has as its system HSV-2 (herpes simplex virus type 2, strain 186). The experiment can be described thus: HSV-2 antiviral assay, plaque reduction in WI-38 cell culture monolayers. Particulars: Human alphaherpesvirus 2, 96 h; at least 50% plaque reduction; WI-38 cells; 4 days incubation at 37° C; read-out: ID50 HSV-2. As for the experimental part: as §1, §2, §3
The test system of experiment [5] is MuLV (murine leukemia virus, strain CAS). The experiment can be described thus: MuLV antiviral assay, syncytial plaques, SC-1 cells with XC cell overlay. Particulars: SC1, read-out: ID50 MuLV. Here is the method: as §1, §2
MuLV antiviral assay: Antiviral assays using MuLV were performed with some modification, as described by Rowe et al. and Shannon et al.. SC-1 cells were planted at approximately 2×10^5 cell per well in 6 well plates. After overnight incubation at 37° C., the cell cultures were sensitized with DEAE-Dextran for one hour at 37° C., rinsed and inoculated with MuLV. Cultures were re-fed with growth medium containing different concentrations of the test compound. After three more days at 37° C., cultures were re-fed with fresh medium plus test compounds and incubated at 37° C. for an additional 3 days. Cultures were then washed to remove medium, ultraviolet light irradiated, and planted with approximately 5×10^5 XC cells per well in cell growth medium containing the appropriate concentration of the test compound. […] Finally the cultures were rinsed, stained and syncytial plaques were counted. […]

The mark [6] stands for this setting: Human alphaherpesvirus 3, WI-38, read-out: ID50 VZV.
[7] abbreviates: Human betaherpesvirus 5, WI-38, read-out: ID50 HCMV.
Where [8] appears, read: Human alphaherpesvirus 3, at least 50% plaque reduction, WI-38 cells, 6-7 days incubation at 37° C, read-out: ID50 VZV.

Where two headings read alike, the source gives them in different places.

As for `Nc1ccn([C@H]2C[C@@H](CO)[C@@H]2CO)c(=O)n1` (relative stereo) [(1α,2β,3α)-4-Amino-1-[2,3-bis(hydroxymethyl)cyclobutyl]-2(1H)-pyrimidinone], the IC50 is 22 to 44 µM in experiment [1] (Human betaherpesvirus 5, at least 50% plaque reduction, WI-38 cells, 6-7 days incubation at 37° C, read-out: ID50 HCMV); 22 µM in experiment [2] (setting [6]); 444 µM in experiment [3]; 444 µM in experiment [4].
In the case of `Nc1ncnc2c1ncn2[C@H]1C[C@@H](CO)[C@@H]1CO` (relative stereo) [(1α,2β,3α)-3-(6-Amino-9H-purin-9-yl)1,2-cyclobutanedimethanol], the IC50 in experiment [1] (setting [7]) is 0.8 µM; in experiment [2] (setting [8]) it was 0.8 to 2 µM; in experiment [3], 8 µM; in experiment [4] it was 4 to 8 µM.
In the case of `O=c1[nH]c(=O)n([C@H]2C[C@@H](CO)[C@@H]2CO)cc1I` (relative stereo) [(1α,2β,3α)-1-[2,3-Bis(hydroxymethyl)cyclobutyl]-5-iodo-2,4(1H,3H)-pyrimidinedione], the figures for the IC50 in experiment [2] (setting [8]) and in experiment [3] were 14 to 28 µM and 6 to 14 µM, respectively.
Consider `Nc1nc2c(nnn2[C@H]2C[C@@H](CO)[C@@H]2CO)c(=O)[nH]1` (relative stereo) [(1α,2β,3α)-5-Amino-3-[2,3-bis(hydroxymethyl)cyclobutyl]-3,6-dihydro-7H-1,2,3-triazolo[4,5-d]pyrimidin-7-one], for which the IC50 is 376 µM in experiment [1] (setting [7]), 7.5 µM in experiment [3] and 7.5 µM in experiment [4].
As to `Nc1nc2c(ncn2[C@H]2C[C@@H](CO)[C@@H]2CO)c(=O)[nH]1` (relative stereo) [(1α,2β,3α)-9-[2,3-Bis(hydroxymethyl)cyclobutyl]guanine], the IC50 in experiment [5] is 3.8 µM; in experiment [1] (setting [7]), 3.8 µM; in experiment [2] (setting [6]), 0.2 µM; in experiment [3] it was 0.08 to 0.2 µM; in experiment [4] it was 0.04 to 0.08 µM.
Regarding `O=c1[nH]c(=O)n([C@H]2C[C@@H](CO)[C@@H]2CO)cc1/C=C/Br` (relative stereo) [[1α(E),2β,3α]-1-[2,3-Bis(hydroxymethyl)cyclobutyl]-5-(2-bromoethenyl)-2,4(1H,3H)pyrimidinedione], the IC50 fell in the range of 0.03 to 0.06 µM in experiment [2] (setting [8]) and 10 to 30 µM in experiment [3].
